From ChEMBL document CHEMBL3860046, “Increasing metabolic stability via the deuterium kinetic isotope effect: An example from a proline-amide-urea aminothiazole series of phosphatidylinositol-3 kinase alpha inhibitors” (Bioorg Med Chem Lett, 2016) come the findings set out here.

Broadly, the clearance is the rate of elimination divided by the concentration. In general, bioavailability refers to dose-corrected exposure relative to a reference, in per cent. Higher therefore signals good availability. The Tmax is the time at which the peak concentration occurs. A word on the AUC: it is concentration integrated over time. Read a high AUC as more exposure.

Calls of active or inactive are those of the source. The rule behind the calls is not given here.

Series [1] in a line: Intrinsic clearance in mouse liver microsomes at 1 uM after 5 to 30 mins in presence of NADPH by LC-MS/MS analysis. It counts as ADME. The conditions noted are these: read-out: CLH. A general note: Liver microsomes are vesicles of endoplasmic reticulum, rich in cytochrome P450 enzymes.
Series [2] in a line: Intrinsic clearance in rat liver microsomes at 1 uM after 5 to 30 mins in presence of NADPH by LC-MS/MS analysis. To be noted: read-out: CLH. Type of series: ADME.
Series [3] can be described thus: Intrinsic clearance in human liver microsomes at 1 uM after 5 to 30 mins in presence of NADPH by LC-MS/MS analysis. To be noted: read-out: CLH. It counts as ADME.
A short description of series [4]: Stability in rat hepatocytes assessed as compound remaining at 1 uM measured after 40 to 60 mins by capillary-HPLC/MS analysis. It counts as ADME, cell-based, Hepatocyte. To be noted: read-out: Stability.
Series [5] can be described thus: Stability in human hepatocytes assessed as compound remaining at 1 uM measured after 40 to 60 mins by capillary-HPLC/MS analysis. It counts as ADME, cell-based, Hepatocyte. To be noted: read-out: Stability.
The nature of series [6]: Clearance in Sprague-Dawley rat at 1 mg/kg, iv administered in cassette mode measured up to 48 hrs. It counts as ADME, organism-based. To be noted: in vivo.
A short description of series [7]: Volume of distribution at steady state in Sprague-Dawley rat at 1 mg/kg, iv or 3 mg/kg, po administered in cassette mode measured up to 48 hrs. It counts as ADME, organism-based. To be noted: in vivo, read-out: Vdss.
A short description of series [8]: Terminal half life in Sprague-Dawley rat at 3 mg/kg, po administered in cassette mode. Type of series: ADME, organism-based. To be noted: in vivo, read-out: beta t1/2 (converted).
A short description of series [9]: Dose normalized AUC in Sprague-Dawley rat at 1 mg/kg, iv administered in cassette mode measured up to 48 hrs. To be noted: in vivo. It counts as ADME, organism-based.
The nature of series [10]: Dose normalized AUC in Sprague-Dawley rat at 3 mg/kg, po administered in cassette mode measured up to 48 hrs. To be noted: in vivo. It counts as ADME, organism-based.
Series [11] can be described thus: Oral bioavailability in Sprague-Dawley rat at 3 mg/kg administered in cassette mode measured up to 48 hrs. Type of series: ADME, organism-based. To be noted: in vivo.
Series [12] is described as follows: Dose normalized Cmax in Sprague-Dawley rat at 1 mg/kg, iv or 3 mg/kg, po administered in cassette mode. It counts as ADME, organism-based. The conditions noted are these: in vivo.
Series [13] is described as follows: Tmax in Sprague-Dawley rat at 1 mg/kg, iv or 3 mg/kg, po administered in cassette mode. It counts as ADME, organism-based. To be noted: in vivo.
The nature of series [14]: Stability in Sprague-Dawley rat blood assessed as compound remaining at 1 mg/kg, iv administered in cassette mode measured after 0.5 hrs by capillary-HPLC/MS analysis. Type of series: ADME, organism-based. To be noted: whole blood, read-out: Stability.
Series [15] is described as follows: Stability in Sprague-Dawley rat blood assessed as compound remaining at 1 mg/kg, iv administered in cassette mode measured after 1 hr by capillary-HPLC/MS analysis. The conditions noted are these: whole blood, read-out: Stability. It counts as ADME, organism-based.
Series [16] can be described thus: Stability in Sprague-Dawley rat blood assessed as compound remaining at 3 mg/kg, po administered in cassette mode measured after 0.5 hrs by capillary-HPLC/MS analysis. To be noted: whole blood, read-out: Stability. Type of series: ADME, organism-based.
A short description of series [17]: Stability in Sprague-Dawley rat blood assessed as compound remaining at 3 mg/kg, po administered in cassette mode measured after 1 hr by capillary-HPLC/MS analysis. Type of series: ADME, organism-based. To be noted: whole blood, read-out: Stability.
The nature of series [18]: Antitumor activity in Rat1 cells expressing myr-p110alpha xenografted in Harlan nude mouse assessed as tumor regression at 25 mg/kg, po qd administered for 8 days measured post last dose. Type of series: functional, Rattus norvegicus.
Series [19] can be described thus: Antitumor activity in Rat1 cells expressing myr-p110alpha xenografted in Harlan nude mouse assessed as tumor regression at 50 mg/kg, po qd administered for 8 days measured post last dose. It counts as functional, Rattus norvegicus.
Series [20] can be described thus: Drug level in rat hepatocytes treated with 1 uM (2S)-N1-[4-methyl-5-[2-[2,2,2-trideuterio-1,1-bis(trideuteriomethyl)ethyl]pyrimidin-4-yl]thiazol-2-yl]pyrrolidine-1,2-dicarboxamide measured after 40 to 60 mins by capillary-HPLC/MS analysis. It counts as ADME, cell-based, Hepatocyte.
Series [21] is described as follows: Drug level in human hepatocytes treated with 1 uM (2S)-N1-[4-methyl-5-[2-[2,2,2-trideuterio-1,1-bis(trideuteriomethyl)ethyl]pyrimidin-4-yl]thiazol-2-yl]pyrrolidine-1,2-dicarboxamide measured after 40 to 60 mins by capillary-HPLC/MS analysis. Type of series: ADME, cell-based, Hepatocyte.
Series [22] in a line: Drug level in rat liver microsomes treated with (S)-N1-(5-(2-tert-butylpyrimidin-4-yl)-4-methylthiazol-2-yl)pyrrolidine-1,2-dicarboxamide at 5 uM measured after 1 hr in presence of alamethicin,uridine 5'-diphospho-glucuronic acid,glutathione,NADPH by capillary-HPLC/MS analysis. Type of series: ADME.
A short description of series [23]: Drug level in human liver microsomes treated with (S)-N1-(5-(2-tert-butylpyrimidin-4-yl)-4-methylthiazol-2-yl)pyrrolidine-1,2-dicarboxamide at 5 uM measured after 1 hr in presence of alamethicin,uridine 5'-diphospho-glucuronic acid,glutathione,NADPH by capillary-HPLC/MS analysis. It counts as ADME.
A short description of series [24]: Drug level in rat liver microsomes treated with (S)-N1-(5-(2-tert-butylpyrimidin-4-yl)-4-methylthiazol-2-yl)pyrrolidine-1,2-dicarboxamide at 5 uM measured immediately after compound addition in presence of alamethicin,uridine 5'-diphospho-glucuronic acid,glutathione,NADPH by capillary-HPLC/MS analysis. It counts as ADME.
Series [25] can be described thus: Stability in rat liver microsomes assessed as compound remaining at 5 uM measured immediately after compound addition in presence of alamethicin,uridine 5'-diphospho-glucuronic acid,glutathione,NADPH by capillary-HPLC/MS analysis (reference value: 96.3 %). It counts as ADME. The conditions noted are these: read-out: Stability.
Series [26] can be described thus: Stability in rat liver microsomes assessed as compound remaining at 5 uM measured after 1 hr in presence of alamethicin,uridine 5'-diphospho-glucuronic acid,glutathione,NADPH by capillary-HPLC/MS analysis (reference value: 96.3 %). The conditions noted are these: read-out: Stability. Type of series: ADME.
Series [27] can be described thus: Stability in human liver microsomes assessed as compound remaining at 5 uM measured after 1 hr in presence of alamethicin,uridine 5'-diphospho-glucuronic acid,glutathione,NADPH by capillary-HPLC/MS analysis (reference value: 96.3 %). To be noted: read-out: Stability. Type of series: ADME.
Series [28] can be described thus: AUC (0 to 24 hrs) in Harlan nude mouse plasma xenografted with Rat1 cells expressing myr-p110alpha at 50 mg/kg, po qd administered for 8 days measured post last dose. It counts as ADME, organism-based. Set-up: time < 24 hr, dose 50 mg/kg, route oral.
Series [29] can be described thus: AUC (0 to 24 hrs) in Harlan nude mouse plasma xenografted with Rat1 cells expressing myr-p110alpha at 100 mg/kg, po qd administered for 8 days measured post last dose. It counts as ADME, organism-based. Further details: dose 100 mg/kg, time < 24 hr, route oral.
Series [30] can be described thus: AUC (0 to 24 hrs) in Harlan nude mouse plasma xenografted with Rat1 cells expressing myr-p110alpha at 150 mg/kg, po qd administered for 8 days measured post last dose. Type of series: ADME, organism-based. Further details: time < 24 hr, dose 150 mg/kg, route oral.
Series [31] can be described thus: Antitumor activity in Rat1 cells expressing myr-p110alpha xenografted in Harlan nude mouse assessed as tumor regression at 100 mg/kg, po qd administered for 8 days measured post last dose. It counts as functional, Rattus norvegicus.
A short description of series [32]: Antitumor activity in Rat1 cells expressing myr-p110alpha xenografted in Harlan nude mouse assessed as tumor regression at 150 mg/kg, po qd administered for 8 days measured post last dose. It counts as functional, Rattus norvegicus.
The species entered for series [33] is Mus musculus. To be noted: Harlan, Rat1, 50 mg/kg.
The species named for series [34] is Mus musculus. The conditions noted are these: Harlan, Rat1, 50 mg/kg. The source holds these as a separate data set.

Regarding `[2H]C([2H])([2H])C(c1nccc(-c2sc(NC(=O)N3CCC[C@H]3C(N)=O)nc2C)n1)(C([2H])([2H])[2H])C([2H])([2H])[2H]`, the microsomal CLint at 1 µM in series [1] came out at 19 µL/min/mg; in series [2] it was 22 µL/min/mg; in series [3] it was 19 µL/min/mg. Also, the remaining at 1 µM was 94.5% in [4] and 96.2% in [5]. In addition, the clearance in series [6] was determined as 16 mL/min/kg. For the same compound, the Vd in series [7] was determined as 1.4 L/kg. The half-life in series [8] is 90 min. Further, the results for the AUC/dose in series [9] and in series [10] were 2750 nM·kg·h/mg and 1490 nM·kg·h/mg, respectively. Besides, the bioavailability in series [11] came out at 54%. Besides, the Cmax/dose in series [12] worked out at 270 nM. The Tmax in series [13] was 18 min. In addition, the remaining at 0.5 h in series [14] turned out to be 95%; in series [16], 91%. In addition, the remaining at 1 h in series [15] is 95%; in series [17] it was 91%. The Activity in series [18] came to 24%; in series [19], 63%.

Turning to `[2H]C([2H])([2H])C(c1nccc(-c2sc(NC(=O)N3CCC[C@H]3C(=O)O)nc2C)n1)(C([2H])([2H])[2H])C([2H])([2H])[2H]`, the Drug metabolism entry in [20] and in series [21] was “Metabolite_Detected” throughout.

Regarding `[2H]C([2H])([2H])C(c1nccc(-c2sc(NC(=O)N3CCC[C@H]3C(N)=O)nc2C)n1)(C([2H])([2H])[2H])C([2H])([2H])O`, the Drug metabolism entry in [20] and in [21] was “Metabolite_Detected” each time.

With `Cc1nc(NC(=O)N2CCC[C@H]2C(=O)O)sc1-c1ccnc(C(C)(C)C)n1`, the Drug metabolism entry in [22], in [23] and in [24] was “Metabolite_Detected” in each case.

On to `Cc1nc(NC(=O)N2CCC[C@H]2C(N)=O)sc1-c1ccnc(C(C)(C)C)n1`, for which the remaining at 0 min, 5 µM in [25] was 98.9%. Besides, the values for the remaining at 1 h, 5 µM in series [26] and in series [27] were 87.2% and 90.8%, respectively. Also, the figures for the microsomal CLint at 1 µM in series [1], in series [2] and in [3] were 35 µL/min/mg, 55 µL/min/mg and 32 µL/min/mg, respectively. Moreover, the Vd in series [7] came to 1.2 L/kg. In addition, the half-life in series [8] was 72 min. Further, the AUC/dose in series [9] was 2010 nM·kg·h/mg; in series [10], 527 nM·kg·h/mg. Further, the bioavailability in series [11] was 26%. For the same compound, in series [12], the Cmax/dose came to 180 nM. Also, in series [13], the Tmax amounted to 18 min. The remaining at 0.5 h in [14] was 90%; in series [16], 74%. The remaining at 1 h in series [15] amounted to 86%; in series [17], 73%. Besides, the AUC at 24 h in series [28] worked out at 65 µM·h; in series [29], 134 µM·h; in series [30], 383 µM·h. Also, the Activity in series [31] is 10%; in [32] it was 51%. In addition, the inhibition result in series [33] and in series [34] was “Active” each time.

As for `Cc1nc(NC(=O)N2CCC[C@H]2C(N)=O)sc1-c1ccnc(C(C)(C)CO)n1`, the Drug metabolism result in [22] and in series [23] was “Metabolite_Detected” each time.
